From patent publication US10730890B2, “Phthalocyanine derivative consisting of a mixture of 4 isomers” (MOLTENI THERAPEUTICS S.R.L., priority 2009, dated 2020) come the findings set out here.

Series [1] can be described thus: solubilisation of intermediate (II) in DMF and THF/MeOH 1/1, HPLC analysis of the solutions. The class given is physicochemical. The note with it: 2 mg/ml, isomer B precipitates. The procedure: Experimental Proof of the Difficulty of Preparing Solutions of (II), Due to the Low Solubility of the Isomer B.
Two samples of the same batch of intermediate (II) are solubilised (2 mg/ml) in, DMF and THF/MeOH 1/1. The solutions are appropriately diluted and analysed in HPLC. […] This behaviour can lead to the preparation of samples having variable composition and, ultimately, to the production of not reliable analytical data including the ones concerning the other isomers

Series [2] is described as follows: pharmacological and toxicological activity of product (I) compared with compounds (V) and (VI). The note with it: new isomers distribution (low isomer B content) with respect to compounds (V) and (VI).

In the case of “[1,8(11),15(18),22(25)-tetrakis-(3-N,N-dimethylamino phenoxy)] Zinc Phthalocyaninate [isomer B]”, the “solubility of the isomer B in comparison to the other isomers” value in series [1] was “lower solubility”.

Consider “[1.8(11),15(18),22(25)-tetrakis-(3-N,N,N-trimethylammonium phenoxy)] Zinc Phthalocyaninate Tetrachloride “With Low Isomer B Content” [(I)]”, for which the “difference in terms of pharmacological and toxicological activity” value in series [2] is recorded as “does not imply any difference”.
